Experimental data as given in publication PMC8228141, “Antiprotozoal Nor-Triterpene Alkaloids from Buxus sempervirens L” (Antibiotics, 2021).
Like-named read-outs stand apart in the source and are kept apart here.

Key:
[1] = tested on: L6 rat skeletal myoblasts; test: Cytotoxicity against mammalian control cells; type: cell-based
Method: (§1) After isolation, all alkaloids were tested in vitro for antiplasmodial and antitrypanosomal activity against Plasmodium falciparum (Pf) and Trypanosoma brucei rhodesiense (Tbr). Furthermore, to assess their selectivity against the parasites, cytotoxicity against L6 rat skeletal myoblasts, as mammalian control cells, was tested (Table 4).
(§2) In vitro assays for the bioactivity of the isolated Buxus-alkaloids against Tbr (bloodstream trypomastigotes, STIB 900 strain), Trypanosoma cruzi (Tc) (amastigotes, Tulahuen C4 strain), Leishmania donovani (Ldo) (amastigotes, MHOM-ET-67/L82 strain) and Pf (intraerythrocytic forms, NF54 strain), and cytotoxicity tests against mammalian cells (L6-cell line from rat-skeletal myoblasts), were performed at the Swiss Tropical and Public Health Institute (Swiss TPH, Basel, Switzerland) according to established standard protocols.

[2] = tested on: Trypanosoma brucei rhodesiense (Tbr) (bloodstream trypomastigotes, STIB 900 strain); design: method as in PMID 29738470; conditions: cited from earlier work
[3] = tested on: Trypanosoma brucei rhodesiense (Tbr) (bloodstream trypomastigotes, STIB 900 strain); test: In vitro antitrypanosomal activity; type: cell-based; conditions: STIB 900 strain; for Tbr IC50: mean of n = 2 (fluctuation range) or * n = 3 (SD); for IC50: read-out: Tbr IC50 (in parentheses) (converted)
Method: as §1
as §2, with “protocols. […] Such a pattern of activity was also observed in other studies.” for “protocols.”

[4] = tested on: Plasmodium falciparum (Pf) (intraerythrocytic forms, NF54 strain); test: In vitro antiplasmodial activity; type: cell-based; conditions: NF54 strain; for Pf IC50: mean of n = 2 (fluctuation range) or * n = 3 (SD); for IC50: read-out: Pf IC50 (in parentheses) (converted)
Method: as §1, §2

[5] = tested on: Plasmodium falciparum (Pf) (intraerythrocytic forms, NF54 strain); design: method as in PMID 24838073; conditions: previous study; cited from earlier work

Molecule | Cytotox. IC50 [1] [µg/mL] | IC50 [1] [nM] | in vitro activity against Tbr [2] | Tbr IC50 [3] [µg/mL] | IC50 [3] [nM] | Pf IC50 [4] [µg/mL] | IC50 [4] [nM] | Cytotox. IC50 ([1]; L6 cell line, mean of n = 2 (fluctuation range) or * n = 3 (SD)) [µg/mL] | IC50 ([1]; L6 cell line, read-out: Cytotox. IC50 (in parentheses) (converted)) [nM] | in vitro activity against Pf [5]
CN[C@@H](C)[C@H]1[C@H](O)C[C@@]2(C)[C@@H]3C=C[C@H]4C(C)(C)[C@@H](N(C)C)CC[C@@]45C[C@@]35CC[C@]12C [Compound 2, Cyclovirobuxeine-B] | 14.7 ± 3.1 | 35500 | highly active and selective | 0.6 ± 0.03 | 1500 | 1.07 ± 0.11 | 2600 | – | – | –
O-tigloylcyclovirobuxeine-B [Compound 1] | – | – | – | 1.6 ± 0.55 | 3200 | 0.52 ± 0.14 | 1050 | 9.4 ± 3.8 | 19000 | strong and selective in vitro activity
